Assay results taken from DBAASP.
In brackets after ≈: the same amount, converted by molar mass.

Key:
Test in all cases: ≥ marks a high value that may be exact or a test limit, other limits are often not marked, values filed in µg/mL are converted to µM
[1] = test system: Candida albicans ATCC 90028
[2] = test system: Escherichia coli ATCC 25922
[3] = test system: Staphylococcus aureus NCTC 8325
[4] = test system: Bacillus subtilis ATCC 6633
[5] = test system: Escherichia coli ATCC 8739
[6] = test system: Staphylococcus aureus ATCC 43300
[7] = test system: Staphylococcus aureus ATCC 6538
[8] = test system: Staphylococcus aureus ATCC 25923
Escherichia coli BL21 = test system: Escherichia coli BL21
[9] = test system: Bacillus subtilis KCTC 3068
[10] = test system: Escherichia coli KCTC 1682
[11] = test system: Salmonella typhimurium KCTC 1926
[12] = test system: Staphylococcus aureus KCTC 1621

| Structure (SMILES) | MIC [1] | MIC [2] | MIC [3] | MIC [4] | MIC [5] | MIC [7] | also measured |
| --- | --- | --- | --- | --- | --- | --- | --- |
| CC[C@H](C)[C@H](NC(=O)[C@H](CC(C)C)NC(=O)[C@H](CCCN=C(N)N)NC(=O)CNC(=O)[C@@H](NC(=O)[C@@H](NC(=O)[C@@H]1CCCN1C(=O)[C@H](CC(C)C)NC(=O)[C@@H](N)Cc1ccccc1)[C@@H](C)CC)C(C)C)C(=O)N[C@@H](CO)C(=O)NCC(=O)N[C@@H](CC(C)C)C(=O)N[C@@H](CC(C)C)C(N)=O [FLPIVGRLISGLL] |  | 125 µM (≈ 175 µg/mL) | 15 µM (≈ 21 µg/mL) |  |  |  |  |
| CSCC[C@H](N)C(=O)N[C@@H](CO)C(=O)N[C@@H](C)C(=O)N[C@@H](CCC(=O)O)C(=O)N[C@H](C(=O)N[C@H](C(=O)N[C@H](C(=O)N[C@@H](CCCCN)C(=O)N[C@@H](CCCCN)C(=O)N[C@H](C(=O)N[C@@H](CC(=O)O)C(=O)NCC(=O)N[C@@H](CC(=O)O)C(=O)N[C@@H](C)C(=O)N[C@@H](CC(C)C)C(=O)N[C@@H](CCC(=O)O)C(=O)N[C@@H](CC(C)C)C(=O)NCC(=O)O)C(C)C)C(C)C)C(C)C)C(C)C [MSAEVVVKKVDGDALELG] |  |  |  |  | ≥ 138 µM |  | MIC [8]: > 138 µM |
| CC[C@H](C)[C@H](NC(=O)[C@@H]1CCCN1C(=O)[C@H](CC(C)C)NC(=O)[C@H](Cc1ccc(O)cc1)NC(=O)[C@H](Cc1cnc[nH]1)NC(=O)[C@H](C)NC(=O)CNC(=O)[C@H](C)NC(=O)[C@@H](NC(=O)[C@H](C)NC(=O)[C@H](CS)NC(=O)[C@H](C)NC(=O)[C@@H]1CCCN1C(=O)CNC(=O)[C@H](CS)NC(=O)[C@@H](NC(=O)[C@@H](NC(=O)CNC(=O)CNC(=O)[C@@H](N)C(C)C)[C@@H](C)O)[C@@H](C)CC)C(C)C)C(=O)O [VGGTICGPACAVAGAHYLPI] |  |  |  |  |  |  | MIC (Escherichia coli BL21): ≥ 128 µM |
| CC(C)C[C@H](NC(=O)[C@H](Cc1ccccc1)NC(=O)[C@@H]1CCCN1C(=O)[C@H](Cc1c[nH]c2ccccc12)NC(=O)[C@H](Cc1c[nH]c2ccccc12)NC(=O)[C@H](Cc1c[nH]c2ccccc12)NC(=O)[C@@H]1CCCN1C(=O)[C@H](Cc1ccccc1)NC(=O)[C@H](CCCNC(=N)N)NC(=O)[C@H](CCCNC(=N)N)NC(=O)[C@@H](N)C(C)C)C(=O)N[C@@H](CCCNC(=N)N)C(=O)N[C@@H](CCCNC(=N)N)C(=O)O [VRRFPWWWPFLRR] |  |  |  |  |  |  | MIC [9]: 8.41 µM (≈ 16 µg/mL); MIC [10]: ≥ 33.6 µM; MIC [11]: 16.8 µM (≈ 32 µg/mL); MIC [12]: 8.41 µM (≈ 16 µg/mL) |

Further lines, with some results ahead:

| MIC [1] | MIC [2] | MIC [3] | MIC [4] | MIC [5] | MIC [7] | Structure (SMILES) | also measured |
| --- | --- | --- | --- | --- | --- | --- | --- |
| 3 µM (≈ 6.37 µg/mL) | 13 µM (≈ 27.6 µg/mL) | 3 µM (≈ 6.37 µg/mL) |  |  |  | CC[C@H](C)[C@@H]1NC(=O)[C@H](C)NC(=O)[C@@H](NC(=O)[C@@H](NC(=O)[C@@H](NC(=O)[C@H](CCCCN)NC(=O)[C@H](C)NC(=O)[C@H](C)NC(=O)[C@H](CCSC)NC(=O)CNC(=O)[C@H](C)NC(=O)[C@@H](NC(=O)[C@@H](NC(=O)[C@@H]2CCCN2C(=O)[C@H](Cc2ccccc2)NC(=O)[C@@H](N)Cc2ccccc2)[C@@H](C)CC)[C@@H](C)CC)C(C)C)[C@@H](C)CC)CSSC[C@@H](C(=O)O)NC(=O)[C@H](CCCCN)NC(=O)[C@H](CCCCN)NC(=O)[C@H]([C@@H](C)O)NC1=O [FFPIIAGMAAKVICAITKKC] |  |
| ≥ 100 µM |  |  | 12.5 µM (≈ 38 µg/mL) | ≥ 100 µM | 25 µM (≈ 75.9 µg/mL) | CC[C@H](C)[C@@H]1NC(=O)[C@H](CCCCN)NC(=O)[C@@H](NC(=O)[C@H](CCCCN)NC(=O)[C@H](CC(C)C)NC(=O)[C@H](CCCCN)NC(=O)[C@H](CC(=O)O)NC(=O)[C@H](CC(C)C)NC(=O)[C@H](CC(C)C)NC(=O)[C@@H](NC(=O)[C@@H](NC(=O)[C@H](C)NC(=O)[C@@H](NC(=O)[C@H](CC(N)=O)NC(=O)[C@H](CCCCN)NC(=O)[C@H](C)NC(=O)[C@@H](NC(=O)[C@H](CC(N)=O)NC(=O)[C@H](CCCCN)NC(=O)[C@H](C)NC(=O)[C@@H](NC(=O)[C@H](CC(=O)O)NC(=O)[C@H](CCSC)NC(=O)[C@H](Cc2ccccc2)NC(=O)CN)[C@@H](C)O)C(C)C)C(C)C)C(C)C)[C@@H](C)O)CSSC[C@@H](C(=O)O)NC(=O)CNC(=O)CNC(=O)[C@H]([C@@H](C)O)NC1=O [GFMDTAKNVAKNVAVTLLDKLKCKITGGC] | MIC [6]: 100 µM (≈ 304 µg/mL) |
|  | 1 µM (≈ 4.93 µg/mL) | 12 µM (≈ 59.2 µg/mL) |  |  |  | CC[C@H](C)[C@H](NC(=O)CNC(=O)[C@@H](NC(=O)[C@H](CCCN=C(N)N)NC(=O)[C@@H](NC(=O)[C@H](CC(C)C)NC(=O)[C@H](CC(=O)O)NC(=O)[C@H](CCSC)NC(=O)CNC(=O)[C@H](C)NC(=O)[C@H](CCC(=O)O)NC(=O)[C@H](CCCCN)NC(=O)CNC(=O)[C@@H](NC(=O)[C@@H](NC(=O)[C@H](CCCCN)NC(=O)[C@@H](NC(=O)[C@@H](NC(=O)[C@H](CC(N)=O)NC(=O)[C@H](Cc1ccccc1)NC(=O)[C@@H](NC(=O)CNC(=O)[C@@H](NC(=O)[C@H](CCCCN)NC(=O)[C@H](C)NC(=O)[C@H](CCCCN)NC(=O)[C@H](CCCCN)NC(=O)[C@H](CCCCN)NC(=O)[C@H](CC(N)=O)NC(=O)[C@@H](NC(=O)[C@H](CCCCN)NC(=O)[C@@H]1CCCN1C(=O)[C@H](Cc1ccccc1)NC(=O)[C@H](CC(C)C)NC(=O)CN)[C@@H](C)CC)[C@@H](C)O)C(C)C)[C@@H](C)CC)[C@@H](C)CC)[C@@H](C)O)C(C)C)[C@@H](C)CC)[C@@H](C)O)C(=O)N[C@@H](CC(=O)O)C(=O)N[C@H](C(=O)N[C@H](C(=O)NCC(=O)N[C@H]1CSSC[C@@H](C(=O)O)NC(=O)[C@H](CCC(=O)O)NC(=O)CNC(=O)[C@H](CCCCN)NC(=O)[C@H]([C@@H](C)CC)NC(=O)[C@H](CCCCN)NC1=O)[C@@H](C)CC)[C@@H](C)O [GLFPKINKKKAKTGVFNIIKTVGKEAGMDLIRTGIDTIGCKIKGEC] |  |
|  |  |  |  | 14.7 µM (≈ 32 µg/mL) |  | CC[C@H](C)[C@H](NC(=O)[C@H](CCCCN)NC(=O)[C@H](C)NC(=O)[C@@H](NC(=O)[C@@H](NC(=O)[C@H](CCCN=C(N)N)NC(=O)[C@H](C)NC(=O)[C@H](CC(C)C)NC(=O)[C@@H](NC(=O)[C@H](CCCCN)NC(=O)[C@H](C)NC(=O)[C@H](C)NC(=O)[C@H](Cc1ccccc1)NC(=O)[C@H](CC(C)C)NC(=O)[C@H](CCCCN)NC(=O)[C@H](CCCCN)NC(=O)[C@H](CCSC)NC(=O)[C@@H]1CCCN1)[C@@H](C)CC)C(C)C)C(C)C)C(=O)N[C@@H](Cc1c[nH]c2ccccc12)C(=O)O [PMKKLFAAKILARVVAKIW] | MIC [8]: > 117 µM |
| ≥ 50 µM |  |  | 12.5 µM (≈ 61 µg/mL) | 3.1 µM (≈ 15.1 µg/mL) | 3.1 µM (≈ 15.1 µg/mL) | CC[C@H](C)[C@H](NC(=O)CNC(=O)[C@H](CCCCN)NC(=O)[C@H](CC(C)C)NC(=O)[C@@H](NC(=O)[C@H](CC(C)C)NC(=O)[C@H](CC(N)=O)NC(=O)[C@H](CCCCN)NC(=O)[C@@H](NC(=O)[C@H](C)NC(=O)[C@H](CCCCN)NC(=O)CNC(=O)CNC(=O)[C@@H](NC(=O)[C@H](CCCCN)NC(=O)[C@H](CO)NC(=O)[C@H](Cc1ccccc1)NC(=O)[C@@H](NC(=O)[C@@H](N)CCCN=C(N)N)[C@@H](C)CC)[C@@H](C)CC)[C@@H](C)CC)[C@@H](C)CC)C(=O)N[C@@H](CCCCN)C(=O)N[C@@H](CC(N)=O)C(=O)N[C@H](C(=O)NCC(=O)N[C@@H](CCCCN)C(=O)N[C@@H](CCC(=O)O)C(=O)N[C@H](C(=O)NCC(=O)N[C@@H](CCSC)C(=O)N[C@@H](CC(=O)O)C(=O)N[C@H](C(=O)N[C@H](C(=O)N[C@@H](CCCN=C(N)N)C(=O)N[C@H](C(=O)NCC(=O)N[C@H](C(=O)N[C@@H](CC(=O)O)C(=O)N[C@H](C(=O)N[C@@H](C)C(=O)NCC(=O)N[C@H]1CSSC[C@@H](C(=O)O)NC(=O)[C@H](CCC(=O)O)NC(=O)CNC(=O)[C@H](CCCCN)NC(=O)[C@H]([C@@H](C)CC)NC(=O)[C@H](CCCCN)NC1=O)C(C)C)[C@@H](C)CC)[C@@H](C)O)[C@@H](C)CC)C(C)C)C(C)C)[C@@H](C)CC [RIFSKIGGKAIKNLILKGIKNIGKEVGMDVIRTGIDVAGCKIKGEC] | MIC [6]: 12.5 µM (≈ 61 µg/mL) |
|  |  |  | 25 µM (≈ 85.8 µg/mL) | 12.5 µM (≈ 42.9 µg/mL) | 6.3 µM (≈ 21.6 µg/mL) | CC[C@H](C)[C@H](NC(=O)[C@H](C)NC(=O)[C@H](CC(C)C)NC(=O)[C@H](CC(=O)O)NC(=O)[C@H](CCCCN)NC(=O)[C@H](Cc1ccccc1)NC(=O)[C@@H](NC(=O)[C@@H](NC(=O)[C@H](CC(C)C)NC(=O)[C@H](Cc1ccccc1)NC(=O)[C@@H](N)CO)[C@@H](C)O)[C@@H](C)O)C(=O)N[C@@H](CCCCN)C(=O)N[C@@H](C)C(=O)N[C@@H](C)C(=O)N[C@@H](CCCCN)C(=O)N[C@@H](CO)C(=O)N[C@@H](C)C(=O)NCC(=O)N[C@@H](CCC(N)=O)C(=O)N[C@@H](CO)C(=O)N[C@H](C(=O)N[C@@H](CC(C)C)C(=O)N[C@@H](CO)C(=O)N[C@H](C(=O)N[C@@H](CC(C)C)C(=O)N[C@@H](CO)C(=O)N[C@H]1CSSC[C@@H](C(=O)O)NC(=O)[C@H]([C@@H](C)O)NC(=O)[C@H](CC(N)=O)NC(=O)[C@H](CO)NC(=O)[C@H](CC(C)C)NC(=O)[C@H](CCCCN)NC1=O)[C@@H](C)O)C(C)C [SFLTTFKDLAIKAAKSAGQSVLSTLSCKLSNTC] |  |
